Results as given in the supplement of paper PMC6045584.
± gives the standard deviation of the averaged measurements.

What was measured:
[1] = compound: CC(=O)NCC(=O)N1[C@@H]2CC[C@H]1c1ccc(Nc3ncc(C(F)(F)F)c(NC4CCC4)n3)cc12; assay: surviving fraction relative to DMSO-only wells; higher = less growth inhibition; details: exposure time: 5 days
Method in brief: (§1)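 Tumour cell lines were seeded in log phase at 250–500 cells per well into 384-well plates. Starting 24 hours later, inhibitors were present continuously for five days at 0.5, 1, 5, 10, 50, 100, 500 and 1000 nM. Surviving fraction, from CellTiter-Glo luminescence, is normalised to the median of DMSO-only wells. Three screens per line were required, with replicate Pearson r >0.7 and median Z' >0.3 for a line to be kept.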

[2] = compound: T1, CC(=O)O[C@H]1C(=O)[C@@]2(C)[C@H]([C@H](OC(=O)c3ccccc3)[C@]3(O)C[C@H](OC(=O)[C@H](O)[C@@H](NC(=O)c4ccccc4)c4ccccc4)C(C)=C1C3(C)C)[C@]1(OC(C)=O)CO[C@@H]1C[C@@H]2O [PACLITAXEL]; assay: as above; details: exposure time: 5 days
Method in brief: as §1

[3] = compound: CC(=O)c1c(C)c2cnc(Nc3ccc(N4CCNCC4)cn3)nc2n(C2CCCC2)c1=O; assay: as above; details: exposure time: 5 days
Method in brief: as §1

[4] = compound: T2, CC[C@@]1(O)C(=O)OCc2c1cc1n(c2=O)Cc2cc3ccccc3nc2-1 [CAMPTOTHECIN]; assay: as above; details: exposure time: 5 days
Method in brief: as §1

[5] = compound: T3, COCC[n+]1c2c(n(Cc3cnccn3)c1C)C(=O)c1ccccc1C2=O [YM155]; assay: as above; details: exposure time: 5 days
Method in brief: as §1

[6] = compound: COc1cc2ncnc(Nc3ccc(F)c(Cl)c3)c2cc1OCCCN1CCOCC1 [GEFITINIB]; assay: as above; details: exposure time: 5 days
Method in brief: as §1

[7] = compound: T4, C[C@]1(O)C[C@@H](c2nc(-c3ccc4ccc(-c5ccccc5)nc4c3)c3c(N)nccn32)C1 [OSI-906]; assay: as above; details: exposure time: 5 days
Method in brief: as §1

[8] = compound: T5, Cc1ccc(-c2cc(C(F)(F)F)nn2-c2ccc(S(N)(=O)=O)cc2)cc1 [CELECOXIB]; assay: as above; details: exposure time: 5 days
Method in brief: as §1

[9] = compound: T6, O=C(O)C1(C(=O)O)CCC1.[NH2-].[NH2-].[Pt+2] [CARBOPLATIN]; assay: as above; details: exposure time: 5 days
Method in brief: as §1

[10] = compound: CC(=O)NCC(=O)N1[C@@H]2CC[C@H]1c1ccc(Nc3ncc(C(F)(F)F)c(NC4CCC4)n3)cc12; assay: area under dose-response curve of surviving fraction (unscaled, Aref=0) (surviving fraction x log10(nM)); higher = more resistant; details: exposure time: 5 days; dose range 0.5-1000 nM
Method in brief: (§2)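 Tumour cell lines in 384-well plates were exposed to eight inhibitor concentrations, from 0.5 to 1000 nM, for five days, and viability was read by CellTiter-Glo luminescence in three screens per line. Signals were normalised to DMSO-only wells, and 3-parameter logistic regression in the drc R package fitted dose-response survival curves to the surviving fractions. Area under the curve is given as the unscaled activity area. That area is taken over log10 dose with Aref = 0.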

[11] = compound: T1, PACLITAXEL; assay: as above; details: exposure time: 5 days; dose range 0.5-1000 nM
Method in brief: as §2

[12] = compound: CC(=O)c1c(C)c2cnc(Nc3ccc(N4CCNCC4)cn3)nc2n(C2CCCC2)c1=O; assay: as above; details: exposure time: 5 days; dose range 0.5-1000 nM
Method in brief: as §2

[13] = compound: T2, CAMPTOTHECIN; assay: as above; details: exposure time: 5 days; dose range 0.5-1000 nM
Method in brief: as §2

[14] = compound: T3, YM155; assay: as above; details: exposure time: 5 days; dose range 0.5-1000 nM
Method in brief: as §2

[15] = compound: T4, OSI-906; assay: as above; details: exposure time: 5 days; dose range 0.5-1000 nM
Method in brief: as §2

[16] = compound: T5, CELECOXIB; assay: as above; details: exposure time: 5 days; dose range 0.5-1000 nM
Method in brief: as §2

[17] = compound: T6, CARBOPLATIN; assay: as above; details: exposure time: 5 days; dose range 0.5-1000 nM
Method in brief: as §2

Q: For U2OS BONE, which surviving fraction ([1]; 0.5 nM) is on record?
A: 1.07 ± 0.016

Q: And the surviving fraction ([1]; 1 nM)?
A: 1.02 ± 0.04

Q: What about the surviving fraction ([1]; 5 nM) of the same test system?
A: 1.04 ± 0.061

Q: And the surviving fraction ([1]; 10 nM)?
A: 1.01 ± 0.014

Q: And the surviving fraction ([1]; 50 nM)?
A: 0.725 ± 0.015

Q: What about the surviving fraction ([1]; 100 nM) of the same test system?
A: 0.483 ± 0.0044

Q: What about the surviving fraction ([1]; 500 nM) of the same test system?
A: 0.314 ± 0.016

Q: What about the surviving fraction ([1]; 1000 nM) of the same test system?
A: 0.225 ± 0.011

Q: What about the surviving fraction ([2]; 0.5 nM) of the same test system?
A: 1 ± 0.037

Q: And the surviving fraction ([2]; 1 nM)?
A: 0.985 ± 0.016

Q: And the surviving fraction ([2]; 5 nM)?
A: 0.488 ± 0.011

Q: What about the surviving fraction ([2]; 10 nM) of the same test system?
A: 0.271 ± 0.012

Q: And the surviving fraction ([2]; 50 nM)?
A: 0.106 ± 0.0087

Q: And the surviving fraction ([2]; 100 nM)?
A: 0.0817 ± 0.0093

Q: And the surviving fraction ([2]; 500 nM)?
A: 0.0593 ± 0.0085

Q: What about the surviving fraction ([2]; 1000 nM) of the same test system?
A: 0.059 ± 0.001

Q: And the surviving fraction ([3]; 0.5 nM)?
A: 1.02 ± 0.044

Q: And the surviving fraction ([3]; 1 nM)?
A: 1.01 ± 0.04

Q: And the surviving fraction ([3]; 5 nM)?
A: 1.06 ± 0.021

Q: What about the surviving fraction ([3]; 10 nM) of the same test system?
A: 1.06 ± 0.033

Q: What about the surviving fraction ([3]; 50 nM) of the same test system?
A: 1.06 ± 0.034

Q: What about the surviving fraction ([3]; 100 nM) of the same test system?
A: 1.06 ± 0.033

Q: And the surviving fraction ([3]; 500 nM)?
A: 0.979 ± 0.032

Q: What about the surviving fraction ([3]; 1000 nM) of the same test system?
A: 0.981 ± 0.062

Q: What about the surviving fraction ([4]; 0.5 nM) of the same test system?
A: 0.924 ± 0.055

Q: What about the surviving fraction ([4]; 1 nM) of the same test system?
A: 0.943 ± 0.054

Q: And the surviving fraction ([4]; 5 nM)?
A: 0.948 ± 0.025

Q: What about the surviving fraction ([4]; 10 nM) of the same test system?
A: 0.733 ± 0.03

Q: And the surviving fraction ([4]; 50 nM)?
A: 0.567 ± 0.011

Q: What about the surviving fraction ([4]; 100 nM) of the same test system?
A: 0.464 ± 0.0056

Q: What about the surviving fraction ([4]; 500 nM) of the same test system?
A: 0.121 ± 0.013

Q: What about the surviving fraction ([4]; 1000 nM) of the same test system?
A: 0.0677 ± 0.0097

Q: And the surviving fraction ([5]; 0.5 nM)?
A: 1.02 ± 0.026

Q: What about the surviving fraction ([5]; 1 nM) of the same test system?
A: 1.005 ± 0.0056

Q: What about the surviving fraction ([5]; 5 nM) of the same test system?
A: 0.616 ± 0.036

Q: And the surviving fraction ([5]; 10 nM)?
A: 0.304 ± 0.043

Q: What about the surviving fraction ([5]; 50 nM) of the same test system?
A: 0.033 ± 0.001

Q: And the surviving fraction ([5]; 100 nM)?
A: 0.023

Q: And the surviving fraction ([5]; 500 nM)?
A: 0.021

Q: And the surviving fraction ([5]; 1000 nM)?
A: 0.0247 ± 0.00058

Q: And the surviving fraction ([6]; 0.5 nM)?
A: 1.03 ± 0.057

Q: What about the surviving fraction ([6]; 1 nM) of the same test system?
A: 0.9987 ± 0.0084

Q: And the surviving fraction ([6]; 5 nM)?
A: 1.03 ± 0.015

Q: And the surviving fraction ([6]; 10 nM)?
A: 0.989 ± 0.0078

Q: What about the surviving fraction ([6]; 50 nM) of the same test system?
A: 1.04 ± 0.027

Q: And the surviving fraction ([6]; 100 nM)?
A: 1.04 ± 0.031

Q: What about the surviving fraction ([6]; 500 nM) of the same test system?
A: 0.959 ± 0.0095

Q: What about the surviving fraction ([6]; 1000 nM) of the same test system?
A: 0.98 ± 0.048

Q: And the surviving fraction ([7]; 0.5 nM)?
A: 0.979 ± 0.038

Q: And the surviving fraction ([7]; 1 nM)?
A: 0.949 ± 0.031

Q: What about the surviving fraction ([7]; 5 nM) of the same test system?
A: 0.958 ± 0.013

Q: What about the surviving fraction ([7]; 10 nM) of the same test system?
A: 0.939 ± 0.021

Q: What about the surviving fraction ([7]; 50 nM) of the same test system?
A: 0.967 ± 0.038

Q: What about the surviving fraction ([7]; 100 nM) of the same test system?
A: 0.914 ± 0.026

Q: And the surviving fraction ([7]; 500 nM)?
A: 0.872 ± 0.026

Q: And the surviving fraction ([7]; 1000 nM)?
A: 0.863 ± 0.026

Q: And the surviving fraction ([8]; 0.5 nM)?
A: 0.98 ± 0.055

Q: What about the surviving fraction ([8]; 1 nM) of the same test system?
A: 1.03 ± 0.032

Q: What about the surviving fraction ([8]; 10 nM) of the same test system?
A: 1.03 ± 0.048

Q: What about the surviving fraction ([8]; 50 nM) of the same test system?
A: 1.05 ± 0.032

Q: What about the surviving fraction ([8]; 100 nM) of the same test system?
A: 1.09 ± 0.016

Q: And the surviving fraction ([8]; 500 nM)?
A: 1.01 ± 0.016

Q: What about the surviving fraction ([8]; 1000 nM) of the same test system?
A: 1 ± 0.043

Q: What about the surviving fraction ([9]; 0.5 nM) of the same test system?
A: 1.04 ± 0.044

Q: What about the surviving fraction ([9]; 1 nM) of the same test system?
A: 1.05 ± 0.046

Q: And the surviving fraction ([9]; 5 nM)?
A: 1.07 ± 0.033

Q: What about the surviving fraction ([9]; 10 nM) of the same test system?
A: 1.1 ± 0.028

Q: And the surviving fraction ([9]; 50 nM)?
A: 1.1 ± 0.049

Q: What about the surviving fraction ([9]; 100 nM) of the same test system?
A: 1.077 ± 0.0098

Q: What about the surviving fraction ([9]; 500 nM) of the same test system?
A: 1.06 ± 0.016

Q: What about the surviving fraction ([9]; 1000 nM) of the same test system?
A: 1.05 ± 0.032

Q: What about the “area under dose-response curve” value [10] of the same test system?
A: 2.43

Q: What about the “area under dose-response curve” value [11] of the same test system?
A: 1.15

Q: What about the “area under dose-response curve” value [12] of the same test system?
A: 3.41

Q: And the “area under dose-response curve” value [13]?
A: 2.05

Q: What about the “area under dose-response curve” value [14] of the same test system?
A: 1.16

Q: And the “area under dose-response curve” value [15]?
A: 3.08

Q: And the “area under dose-response curve” value [16]?
A: 3.42

Q: And the “area under dose-response curve” value [17]?
A: 3.52
